Where two headings read alike, the source gives them in different places.
Legend:
[1] = test system: MGC‐803 cells; experiment: Cytotoxicity against MGC-803 cells; format: cell-based; settings: Homo sapiens, 72 h
[2] = test system: MFC cells; format: in vivo, mice; settings: for tumor growth inhibition rate (TGI): MFC tumor, 615 mice, 14 days
Experimental: Six-week-old 615 mice (male) were procured from SJA laboratory animals in Hunan, China, and acclimated to a pathogen-free environment for one week before the commencement of the experiment. Subsequently, 5 × 10^5 of gastric cancer cell MFC were subcutaneously administered into the right flank of the mice. Tumor volume was determined using the formula length × width^2/2. […] Following 14 days, the mice were euthanized, and their tumors and vital organs were dissected for analysis. Paraffin sections measuring 4 µm in thickness were subjected to deparaffinization and subsequently treated with 3% hydrogen peroxide to inhibit endogenous peroxidase activity. Following this, slides were prepared to prevent nonspecific antibody binding and were then exposed to primary antibodies targeting HDAC6, Ac-tubulin, Ki-67, and Tunnel. The mice involved in the study were maintained in specific pathogen-free environments, and the experimental procedures were approved by the Ethics Committee of the Zhengzhou University Health Science Centre. The animal experimentation ethics number is ZZU-URIB-2024-O-109. All experimental animals adhered to the ARRIVE guidelines and were strictly in accordance with the National Research Council Guidelines for the Care and Use of Laboratory Animals.

[3] = biological target: T1, HDAC6 (Homo sapiens, UniProt Q9UBN7); experiment: CETSA of HDAC6 at the cellular level; format: cell-based
T1 sequence (Q9UBN7 1-1215): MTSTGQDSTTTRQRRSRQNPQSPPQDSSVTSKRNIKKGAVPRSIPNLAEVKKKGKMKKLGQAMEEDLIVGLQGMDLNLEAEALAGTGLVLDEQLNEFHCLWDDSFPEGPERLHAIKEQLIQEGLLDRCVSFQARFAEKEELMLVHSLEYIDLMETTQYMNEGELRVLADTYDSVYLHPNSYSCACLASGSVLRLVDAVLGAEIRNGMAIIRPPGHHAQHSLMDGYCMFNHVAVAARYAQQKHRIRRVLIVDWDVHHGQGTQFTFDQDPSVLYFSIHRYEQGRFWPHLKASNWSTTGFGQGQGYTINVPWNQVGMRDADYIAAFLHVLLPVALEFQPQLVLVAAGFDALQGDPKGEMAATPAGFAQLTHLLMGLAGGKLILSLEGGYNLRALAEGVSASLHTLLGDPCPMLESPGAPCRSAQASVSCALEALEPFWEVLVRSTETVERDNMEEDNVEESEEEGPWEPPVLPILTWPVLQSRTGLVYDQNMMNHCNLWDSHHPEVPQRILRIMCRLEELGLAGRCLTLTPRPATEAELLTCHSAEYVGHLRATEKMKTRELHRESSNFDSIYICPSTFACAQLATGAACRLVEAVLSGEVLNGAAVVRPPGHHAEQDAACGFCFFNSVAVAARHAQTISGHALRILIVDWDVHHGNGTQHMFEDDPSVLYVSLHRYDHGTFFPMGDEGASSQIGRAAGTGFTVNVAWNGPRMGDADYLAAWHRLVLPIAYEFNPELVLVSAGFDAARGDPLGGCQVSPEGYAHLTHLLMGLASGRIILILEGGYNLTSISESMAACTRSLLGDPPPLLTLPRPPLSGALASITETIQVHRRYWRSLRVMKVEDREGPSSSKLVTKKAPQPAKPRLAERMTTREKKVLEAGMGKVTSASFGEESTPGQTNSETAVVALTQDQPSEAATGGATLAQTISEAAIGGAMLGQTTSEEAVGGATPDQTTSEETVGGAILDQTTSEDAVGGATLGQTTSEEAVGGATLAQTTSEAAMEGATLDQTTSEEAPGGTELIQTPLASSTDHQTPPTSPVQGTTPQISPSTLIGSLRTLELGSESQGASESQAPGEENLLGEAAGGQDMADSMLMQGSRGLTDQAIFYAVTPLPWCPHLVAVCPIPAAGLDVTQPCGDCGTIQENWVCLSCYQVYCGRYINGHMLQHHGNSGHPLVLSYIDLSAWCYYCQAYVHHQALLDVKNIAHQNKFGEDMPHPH

[4] = test system: gastric cancer cells; experiment: Apoptosis, mitochondrial membrane potential and apoptosis protein expression in gastric cancer cells; format: cell-based
Experimental: (§1) Following the indicated treatment, cells were collected and lysed using the recommended amount of radio immunoprecipitation assay (RIPA) buffer from KMT Bio, China, according to the provided instructions. The protein concentration in the lysate was determined using a bicinchoninic acid (BCA)-based protein quantification kit from KMT Bio, China. Subsequently, the samples were denatured in the presence of a 6× loading buffer from KMT Bio, China. Equal amounts of denatured protein samples were subjected to sodium dodecyl sulfate-polyacrylamide gel electrophoresis (SDS-PAGE), and the target protein was then transferred to a nitrocellulose membrane using the wet transfer method with Pall, USA membranes. The membrane was incubated with 5% non-fat milk at 37°C for 1 hour to block non-specific binding, followed by an overnight incubation at 4°C with the recommended concentration of the primary antibody. Afterward, the membranes were washed three times with PBST (PBS buffer with 0.1% Tween-20) for 10 minutes each. The secondary antibody was then appropriately diluted and incubated with the membrane at room temperature for 1 hour. Finally, the membranes were washed three more times with PBST for 10 minutes each, and the protein bands were visualized using an ECL chemiluminescence detection kit from ThermoFisher, USA.

[5] = biological target: HDAC3 (Homo sapiens, UniProt O15379); experiment: HDAC3 enzyme activity assay; format: biochemical; settings: HDAC3 compared to HDAC6
[6] = biological target: HDAC2 (Homo sapiens, UniProt Q92769); experiment: HDAC2 enzyme activity assay; format: biochemical; settings: HDAC2 compared to HDAC6
[7] = Pharmacokinetic study in mice; format: in vivo; settings: male, ICR, mouse, plasma
Experimental: Six male ICR mice were divided into two groups, receiving compound 10n via intravenous and oral administration, respectively. The intravenous injection group had blood samples collected at 5 min, 15 min, 30 min, 1 h, 2 h, 4 h, 6 h, 8 h, and 24 h post-administration; the oral group had blood samples collected at the same time points. Approximately 0.05 mL of blood was collected for each sample. The concentration of compound 10n in mouse plasma samples was determined using LC-MS/MS method and pharmacokinetic parameters were calculated using WinNolin software.

[8] = test system: HDAC6 (Ac‐α‐tubulin, Ac‐H3 readout); experiment: Western blot of HDAC6, Ac-H3 and Ac-α-tubulin in cells; format: cell-based
Experimental: as §1

[9] = test system: MGC‐803 cells; experiment: PD-L1 expression in MGC-803 cells; format: cell-based; settings: compared to vehicle control
[10] = biological target: T1, HDAC6; experiment: BLI binding assay; settings: biotinylated HDAC6 on streptavidin biosensors
Experimental: BLI experiments were conducted using an Octet Red 96 instrument (ForteBio). Streptavidin-coated biosensors (SA, ForteBio) were utilized, and biotinylated HDAC6 protein (50 μg/mL) was immobilized on the biosensor surface. The immobilization levels typically exceeded 0.3 nm. Ligand-loaded SA biosensors were then exposed to various concentrations of compound 10n. The dissociation constants for the interactions between HDAC6 and compound 10n were determined by plotting the increase in BLI response as a function of […].

[11] = biological target: T1, HDAC6; experiment: HDAC6 enzymatic assay (Ac-Lys-AMC substrate, fluorescence); format: biochemical; design: purchased BPS bioscience, USA; settings: enzyme activity assay
Experimental: (§2) The HDAC6 substrate Ac-Lys-AMC (Chinapeptides, China), human recombinant protein HDAC6 (100 ng/mL) (BPS bioscience, USA), and the test compounds were incubated together at 37°C in an assay buffer. The assay buffer consisted of 25 mM HEPES (pH 7.5), 100 mM NaCl, 2.5 mM KCl, 0.005% Tween-20, 1 mM MgCl2, and 0.1 mg/mL bovine serum albumin. After incubation for 1 hour, trypsin was added to release the fluorescent fragment.

[12] = biological target: HDAC1 (Homo sapiens, UniProt Q13547); experiment: HDAC1 enzyme activity assay; format: biochemical; settings: HDAC1 compared to HDAC6
[13] = biological target: T2, HDAC8 (Homo sapiens, UniProt Q9BY41); experiment: HDAC8 enzyme activity assay; format: biochemical; settings: HDAC8 compared to HDAC6
T2 sequence (Q9BY41 1-377): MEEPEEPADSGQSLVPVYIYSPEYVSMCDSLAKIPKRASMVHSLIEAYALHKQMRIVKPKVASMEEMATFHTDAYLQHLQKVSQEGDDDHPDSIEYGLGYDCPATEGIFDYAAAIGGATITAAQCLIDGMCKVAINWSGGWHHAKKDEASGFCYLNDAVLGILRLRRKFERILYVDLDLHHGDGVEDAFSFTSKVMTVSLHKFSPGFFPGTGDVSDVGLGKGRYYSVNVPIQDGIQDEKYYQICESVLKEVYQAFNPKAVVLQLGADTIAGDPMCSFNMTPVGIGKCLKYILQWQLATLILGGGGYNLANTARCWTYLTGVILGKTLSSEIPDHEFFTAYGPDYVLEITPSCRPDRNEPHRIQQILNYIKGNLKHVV
Experimental: as §2

[14] = test system: MKN‐45 cells; experiment: Cytotoxicity against MKN-45 cells; format: cell-based; settings: Homo sapiens, 72 h

Chain of HDAC1 (Q13547 whole entry, species assumed): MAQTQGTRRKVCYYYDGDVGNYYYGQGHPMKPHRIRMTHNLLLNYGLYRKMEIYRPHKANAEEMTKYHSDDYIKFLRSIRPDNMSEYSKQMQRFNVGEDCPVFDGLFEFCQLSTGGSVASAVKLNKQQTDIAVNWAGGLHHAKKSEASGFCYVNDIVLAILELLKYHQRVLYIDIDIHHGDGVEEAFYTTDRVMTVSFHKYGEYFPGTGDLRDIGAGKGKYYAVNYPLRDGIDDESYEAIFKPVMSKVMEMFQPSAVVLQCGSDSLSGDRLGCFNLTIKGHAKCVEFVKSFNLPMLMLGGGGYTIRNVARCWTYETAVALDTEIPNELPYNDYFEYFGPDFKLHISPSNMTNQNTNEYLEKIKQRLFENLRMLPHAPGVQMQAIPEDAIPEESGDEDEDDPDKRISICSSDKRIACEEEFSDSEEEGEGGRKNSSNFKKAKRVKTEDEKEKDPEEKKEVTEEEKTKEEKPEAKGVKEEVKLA
Chain of HDAC2 (Q92769 whole entry, species assumed): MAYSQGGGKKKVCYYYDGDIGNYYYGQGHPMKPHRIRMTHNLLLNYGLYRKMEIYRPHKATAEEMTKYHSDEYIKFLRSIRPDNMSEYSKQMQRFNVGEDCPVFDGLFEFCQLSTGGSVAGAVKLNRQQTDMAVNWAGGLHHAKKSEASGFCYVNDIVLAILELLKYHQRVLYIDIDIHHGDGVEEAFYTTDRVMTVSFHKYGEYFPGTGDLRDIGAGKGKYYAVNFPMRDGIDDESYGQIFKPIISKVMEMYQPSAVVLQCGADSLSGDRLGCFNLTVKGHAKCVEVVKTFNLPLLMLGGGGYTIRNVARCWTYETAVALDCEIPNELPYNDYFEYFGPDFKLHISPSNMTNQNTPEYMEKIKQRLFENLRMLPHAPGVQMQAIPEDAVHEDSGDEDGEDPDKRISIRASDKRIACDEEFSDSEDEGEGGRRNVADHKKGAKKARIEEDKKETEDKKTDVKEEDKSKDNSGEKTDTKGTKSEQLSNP
Chain of HDAC3 (O15379 whole entry, species assumed): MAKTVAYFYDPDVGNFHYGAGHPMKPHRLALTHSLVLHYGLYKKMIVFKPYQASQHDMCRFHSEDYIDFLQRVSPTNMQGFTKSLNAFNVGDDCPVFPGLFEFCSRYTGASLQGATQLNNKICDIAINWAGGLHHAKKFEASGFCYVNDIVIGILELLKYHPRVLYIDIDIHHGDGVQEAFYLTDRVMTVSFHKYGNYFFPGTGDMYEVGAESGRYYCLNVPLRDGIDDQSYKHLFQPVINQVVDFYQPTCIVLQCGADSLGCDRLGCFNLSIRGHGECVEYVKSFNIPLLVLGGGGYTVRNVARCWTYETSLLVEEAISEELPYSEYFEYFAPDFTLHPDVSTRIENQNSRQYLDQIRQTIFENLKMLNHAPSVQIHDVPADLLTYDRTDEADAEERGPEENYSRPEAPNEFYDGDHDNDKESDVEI
Chain of HDAC3 (Q9Y618 395-489 partner limits assumed, species assumed): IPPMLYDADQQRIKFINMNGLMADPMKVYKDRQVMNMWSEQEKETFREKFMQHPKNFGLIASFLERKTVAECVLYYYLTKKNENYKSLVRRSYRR

O=C(NO)c1ccc(CNC(=O)c2cn(CC3CC3)c3ccccc23)cc1 [Compound 10n]
IC50 [1]: 1070 ± 312 nM
tumor growth inhibition rate (TGI) ([2]; oral 10 mg/kg once daily): 55.3%
tumor growth inhibition rate (TGI) ([2]; oral 20 mg/kg once daily): 80.6%
toxicity in treated mice (body weight, organs) ([2]; MFC tumor-bearing mice, 10 or 20 mg/kg oral): no apparent toxicity
HDAC6 protein expression in treated animals ([2]; tumor tissue): no changes
Ki-67 expression in mice ([2]; tumor tissue): decreased
levels of Ac-α-tubulin in treated animals ([2]; tumor tissue, immunohistochemistry): markedly elevated
percentages of CD3+CD8+ cells in tumors ([2]; two treatment groups versus control): higher than the control
HDAC6 thermal stabilization (CETSA) [3]: notably stabilized HDAC6
mitochondrial membrane potential ratios [4]: increase
proportion of apoptotic cells [4]: dose‐dependent increase
selectivity ratio HDAC3/6 [5]: 82.8 fold
selectivity ratio HDAC2/6 [6]: 27.8 fold
AUC ([7]; iv): 350 ± 51.9 ng·h/mL
half-life ([7]; iv): 1.61 ± 0.34 h
AUC ([7]; po): 730 ± 140 ng·h/mL
bioavailability ([7]; po): 41.8 ± 0.08%
half-life ([7]; po): 2 ± 0.44 h
acetylated H3 levels and HDAC6 [8]: no impact
acetylated α-tubulin levels [8]: dose‐dependent increase
PD-L1 expression [9]: dose‐dependent reduction
Kd [10]: 330 ± 180 nM
IC50 [11]: 3.11 nM
selectivity ratio HDAC1/6 [12]: 133.7 fold
selectivity ratio HDAC8/6 [13]: 622.22 fold
IC50 [14]: 2700 ± 935 nM
